The values that follow come from patent US8778966B2, “Quinolinone derivatives as PARP and tank inhibitors” (Janssen Pharmaceutica, NV, priority 2007, dated 2014).

The test system of one assay is PC-3 cells. The experiment in a line: Antiproliferative activity, Alamar Blue assay, PC-3 cells. The note with it: Homo sapiens, PC-3, PC3 cells, Alamar Blue; read-out: PC3 antiproliferative activity pIC50 (converted). The assay is classed as cell-based, human. An outline of the steps: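 PC-3 cells seeded at 4.5×10^3 cells/ml, left to adhere 24 hr, then exposed to compound for 4 days. Resazurin (Alamar Blue) added for a further 24 hrs at 37° C; fluorescence read at 540/590 nm. Viability as % of untreated control, mean of 3 wells; IC50 by probit analysis, reported as pIC50.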

The test system of a further assay is HCT116 cells. The experiment in a line: Mitotic arrest assay on HCT116 cells (phospho-histone H3 Ser10). In kind it is cell-based, human. The note with it: Homo sapiens, HCT-116, HCT116 cells; lowest active dose; read-out: Mitotic arrest HCT116 LAD (converted). An outline of the steps: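 Seeded overnight, then compound-treated 6 h at 37 °C (≤0.1% DMSO); fixed, stained with Alexa Fluor 488 anti-phospho-H3 (Ser10) plus Hoechst 33342, imaged on InCell Analyzer 1000. Blank-subtracted signal divided by SD (sigma), triplicate; value is lowest dose giving sigma >5 (LAD).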

As for `COc1cc(OC)nc(CC(C)(C#N)c2ccc3cc(C)c(=O)[nH]c3c2)n1` (stereo not drawn) [Compound 308], the IC50 in the assay with PC-3 cells is 316 nM. For the same compound, the minimal effective concentration in the assay with HCT116 cells is 0.1 µM.

Regarding `CCOc1cc(OCC)nc(CC(C)(C#N)c2ccc3cc(CC)c(=O)[nH]c3c2)n1` (stereo not drawn) [Compound 309], the IC50 in the assay with PC-3 cells is 2000 nM. In addition, the minimal effective concentration with HCT116 cells was 1 µM.

Turning to `CCc1cc2ccc(C(C)(C#N)Cc3cccc(Cl)n3)cc2[nH]c1=O` (stereo not drawn) [Compound 310], in the assay with PC-3 cells, the IC50 was 631 nM. The minimal effective concentration with HCT116 cells was 0.3 µM.

`CCc1cc2ccc(C(C)(C#N)Cc3ncc(C)c(OC)c3C)cc2[nH]c1=O` (stereo not drawn) [Compound 311]: the IC50 with PC-3 cells was 7940 nM. Also, the minimal effective concentration in the assay with HCT116 cells was 1 µM.

For the compound `CCc1cc2ccc(C(C)(C#N)Cc3ccc(C)nc3)cc2[nH]c1=O` (stereo not drawn) [Compound 327], in the assay with PC-3 cells, the IC50 is 7940 nM. Besides, the minimal effective concentration in the assay on HCT116 cells is 3 µM.

Take `CCc1cc2ccc(C(C)(C#N)Cc3cccc(C#N)n3)cc2[nH]c1=O` (stereo not drawn) [Compound 329]: the IC50 with PC-3 cells is 501 nM. Moreover, the minimal effective concentration with HCT116 cells is 0.3 µM.

`CCCn1ccnc1CC(C)(C#N)c1ccc2cc(CC)c(=O)[nH]c2c1` (stereo not drawn) [Compound 335]: in the assay on PC-3 cells, the IC50 is 10000 nM. Moreover, the minimal effective concentration with HCT116 cells is 3 µM.

Turning to `CCc1cc2ccc(C(C)(C#N)Cc3ccc4ccccc4n3)cc2[nH]c1=O` (stereo not drawn) [Compound 336], the IC50 in the assay on PC-3 cells was 2510 nM. Besides, the minimal effective concentration in the assay on HCT116 cells is 1 µM.

With `CCc1cc2ccc(C(C)(C#N)Cc3nccn3CC)cc2[nH]c1=O` (stereo not drawn) [Compound 337], the IC50 in the assay with PC-3 cells is 5010 nM. The minimal effective concentration in the assay with HCT116 cells is 1 µM.

`CCc1cc2ccc(C(C)(C#N)Cc3nc4ccccc4n3C)cc2[nH]c1=O` (stereo not drawn) [Compound 338]: the IC50 in the assay with PC-3 cells is 2000 nM. The minimal effective concentration in the assay on HCT116 cells is 0.3 µM.

Turning to `CCc1cc2ccc(C(C)(C#N)Cc3cccc(C)n3)cc2[nH]c1=O` (stereo not drawn) [Compound 343], in the assay with PC-3 cells, the IC50 was 2000 nM. In the assay with HCT116 cells, the minimal effective concentration is 0.3 µM.

Regarding `CCc1cc2ccc(C(C)(C#N)Cc3cccc(Br)n3)cc2[nH]c1=O` (stereo not drawn) [Compound 344], the IC50 in the assay with PC-3 cells was 631 nM. The minimal effective concentration with HCT116 cells was 0.3 µM.

Take `CCc1cc2ccc(C(C)(C#N)Cc3cccc(CO)n3)cc2[nH]c1=O` (stereo not drawn) [Compound 345]: in the assay on PC-3 cells, the IC50 was 3980 nM. The minimal effective concentration in the assay with HCT116 cells was 0.3 µM.

`CCc1cc2ccc(C(C)(C#N)Cc3ccc(OC)nc3)cc2[nH]c1=O` (stereo not drawn) [Compound 352]: the IC50 in the assay with PC-3 cells was 2510 nM. Besides, in the assay on HCT116 cells, the minimal effective concentration is 1 µM.

For `CCc1cc2ccc(C(C)(C#N)Cc3cccc(OC)n3)cc2[nH]c1=O` (stereo not drawn) [Compound 353], the IC50 with PC-3 cells is 251 nM. In the assay on HCT116 cells, the minimal effective concentration is 0.3 µM.

For `CCc1cc2ccc(C(C)(C#N)Cc3cnc(OC)nc3Cl)cc2[nH]c1=O` (stereo not drawn) [Compound 356], in the assay with PC-3 cells, the IC50 is 794 nM. For the same compound, in the assay on HCT116 cells, the minimal effective concentration is 0.1 µM.

As for `CCc1cc2ccc(C(C)(C#N)Cc3cnc(OC)nc3OC)cc2[nH]c1=O` (stereo not drawn) [Compound 357], the IC50 with PC-3 cells was 398 nM. Besides, the minimal effective concentration with HCT116 cells was 0.3 µM.

On to `CCc1cc2ccc(C(C)(C#N)Cc3cc(OC)nc(OC)n3)cc2[nH]c1=O` (stereo not drawn) [Compound 358], for which the IC50 in the assay with PC-3 cells is 2510 nM. For the same compound, in the assay with HCT116 cells, the minimal effective concentration is 0.3 µM.

With `CCc1cc2ccc(C(C)(C#N)Cc3nc(Cl)cc(N(C)C)n3)cc2[nH]c1=O` (stereo not drawn) [Compound 359], in the assay on PC-3 cells, the IC50 was 501 nM. In addition, the minimal effective concentration in the assay with HCT116 cells was 0.1 µM.

With `CCc1cc2ccc(C(C)(C#N)Cc3nccc(OC)n3)cc2[nH]c1=O` (stereo not drawn) [Compound 360], the IC50 in the assay on PC-3 cells was 1260 nM. Also, the minimal effective concentration with HCT116 cells was 1 µM.

For `CCc1cc2ccc(C(C)(C#N)Cc3cc(OCCOC)nc(C)n3)cc2[nH]c1=O` (stereo not drawn) [Compound 363], the IC50 in the assay with PC-3 cells is 5010 nM. In the assay with HCT116 cells, the minimal effective concentration is 3 µM.

Take `CCc1cc2ccc(C(C)(C#N)Cc3cc(N(C)C)nc(Cl)n3)cc2[nH]c1=O` (stereo not drawn) [Compound 364]: the IC50 in the assay with PC-3 cells is 794 nM. The minimal effective concentration in the assay on HCT116 cells was 1 µM.

For `CCc1cc2ccc(C(C)(C#N)Cc3cc(OC)nc(C)n3)cc2[nH]c1=O` (stereo not drawn) [Compound 366], in the assay with PC-3 cells, the IC50 is 631 nM. In the assay with HCT116 cells, the minimal effective concentration was 0.3 µM.

Take `CCc1cc2ccc(C(C)(C#N)Cc3cc(OCCOC)nc(Cl)n3)cc2[nH]c1=O` (stereo not drawn) [Compound 367]: the IC50 in the assay on PC-3 cells was 3980 nM. Moreover, the minimal effective concentration in the assay on HCT116 cells was 1 µM.

With `CCc1cc2ccc(C(C)(C#N)Cc3nc(C)cc(C)n3)cc2[nH]c1=O` (stereo not drawn) [Compound 368], the IC50 in the assay with PC-3 cells was 1260 nM. Moreover, the minimal effective concentration in the assay with HCT116 cells was 1 µM.

For the compound `CCc1cc2ccc(C(C)(C#N)Cc3nccc(OCCOC)n3)cc2[nH]c1=O` (stereo not drawn) [Compound 369], in the assay on PC-3 cells, the IC50 is 6310 nM. Further, the minimal effective concentration in the assay with HCT116 cells was 1 µM.

For `CCc1cc2ccc(C(C)(C#N)Cc3nc(Cl)cc(OCCOC)n3)cc2[nH]c1=O` (stereo not drawn) [Compound 370], the IC50 with PC-3 cells was 2510 nM. Also, the minimal effective concentration in the assay with HCT116 cells was 1 µM.

With `CCc1cc2ccc(C(C)(C#N)Cc3cc(Cl)nc(Cl)c3)cc2[nH]c1=O` (stereo not drawn) [Compound 372], in the assay on PC-3 cells, the IC50 was 501 nM. Also, the minimal effective concentration in the assay on HCT116 cells is 0.1 µM.

With `CCc1cc2ccc(C(C)(C#N)Cc3cc(OC)ccn3)cc2[nH]c1=O` (stereo not drawn) [Compound 373], in the assay on PC-3 cells, the IC50 was 10000 nM. Moreover, in the assay with HCT116 cells, the minimal effective concentration is 1 µM.

For the compound `CCc1cc2ccc(C(C)(C#N)CC3CCc4ccccc4O3)cc2[nH]c1=O` (stereo not drawn) [Compound 399], in the assay on PC-3 cells, the IC50 was 631 nM. In addition, in the assay on HCT116 cells, the minimal effective concentration was 0.3 µM.
